Source: paper PMC11783063, “Design, synthesis, and apoptotic antiproliferative action of new benzimidazole/1,2,3-triazole hybrids as EGFR inhibitors” (Frontiers in Chemistry, 2025)
Where two headings read alike, the source gives them in different places.

Key:
[1] = Cell viability assay (MTT) on MCF-10A normal cells; conditions: human, MCF-10A normal mammary gland epithelial cells
Description: (§3) The medium in which cells were propagated contained Dulbecco's modified Eagle's medium (DMEM)/ Ham's F-12 medium (1:1) supplemented with epidermal growth factor (20 ng/mL), hydrocortisone (500 ng/mL), insulin (10 μg/mL), 2 mM glutamine and 10% foetal calf serum. After every 2-3 days, the cells were passed using trypsin ethylenediamine tetra acetic acid (EDTA). The cells were seeded at a density of 10^4 cells mL^-1 in flat-bottomed culture plates containing 96 wells each. After 24 h, medium was removed from the plates and the compounds in (in 0.1% DMSO) were added (in 200 μL medium to yield a final concentration of 0.1% v/v) to the wells of plates. A single compound was designated with four wells followed by incubation of plates for 96h at 37°C. After incubation, medium was removed completely from the plates followed by addition of MTT (0.4 mg/mL in medium) to each well and subsequent incubation of plates for 3h. MTT (along with the medium) was removed and DMSO (150μL) was added to each well of the culture plates, followed by vortexing and subsequent measurement of absorbance (at 540 nm) using microplate reader.

[2] = test system: HT-29 (colon cancer cell line); assay: Antiproliferative assay, HT-29; format: cell-based, human; conditions: read-out: Antiproliferative activity IC50 ± SEM, HT-29
Description: (§1) Refer to Supplementary Appendix A for more information.
(§2) DMSO (0.1%) was used as control.

[3] = test system: MCF-7 (breast cancer cell line); assay: Antiproliferative assay, MCF-7; format: cell-based, human; conditions: read-out: Antiproliferative activity IC50 ± SEM, MCF-7
Description: as §1, §2

[4] = test system: Panc-1 (pancreatic cancer cell line); assay: Antiproliferative assay, Panc-1; format: cell-based, human; conditions: read-out: Antiproliferative activity IC50 ± SEM, Panc-1
Description: as §1, §2

[5] = test system: A-549 (lung cancer cell line); assay: Antiproliferative assay, A-549; format: cell-based, human; conditions: read-out: Antiproliferative activity IC50 ± SEM, A-549
Description: as §1, §2

[6] = test system: four human cancer cell lines (HT-29, A-549, MCF-7, Panc-1); assay: Antiproliferative assay, mean over four cancer cell lines (GI50); conditions: for IC50: read-out: Average IC50 (GI50)
Description: To calculate the total nuclear DNA, a fluorescent dye (propidium iodide, PI) is used which can attach to the DNA, thus offering a quick and precise technique. PI cannot pass through the cell membrane and its signal intensity can be considered as directly proportional to quantity of cellular DNA. Cells whose cell membranes are damaged or have changed permeability are counted as dead ones. […] The medium was removed; the compounds were added to the plates at 10 µM concentrations (in 0.1% DMSO) in triplicates, followed by incubation for 48 h. DMSO (0.1%) was used as control. After incubation, medium was removed followed by the addition of PI (25 µl, 50µg/mL in water/medium) to each well of the plates. At -80 °C, the plates were allowed to freeze for 24 h, followed by thawing at 25 °C. A fluorometer (Polar-Star BMG Tech) was used to record the readings at excitation and emission wavelengths of 530 and 620 nm for each well. The percentage cytotoxicity of compounds was calculated using the following formula:

[7] = biological target: EGFR (Homo sapiens, UniProt P00533); assay: EGFR-TK inhibitory assay
Chain of EGFR (P00533 669-1210): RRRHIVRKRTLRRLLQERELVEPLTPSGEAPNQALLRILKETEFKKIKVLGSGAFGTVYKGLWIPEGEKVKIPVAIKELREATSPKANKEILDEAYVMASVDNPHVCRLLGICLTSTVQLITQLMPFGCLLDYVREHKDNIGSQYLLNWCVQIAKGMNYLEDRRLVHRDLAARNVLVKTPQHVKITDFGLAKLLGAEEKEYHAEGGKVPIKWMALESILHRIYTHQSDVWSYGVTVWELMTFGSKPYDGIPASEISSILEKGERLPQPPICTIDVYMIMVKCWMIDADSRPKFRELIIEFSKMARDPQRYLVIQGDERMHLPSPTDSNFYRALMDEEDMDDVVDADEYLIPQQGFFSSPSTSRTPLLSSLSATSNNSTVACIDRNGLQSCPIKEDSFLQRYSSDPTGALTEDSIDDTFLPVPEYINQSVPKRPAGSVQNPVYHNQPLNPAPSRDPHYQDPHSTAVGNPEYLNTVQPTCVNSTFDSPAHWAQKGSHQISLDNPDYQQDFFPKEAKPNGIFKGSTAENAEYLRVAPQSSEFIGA
Description: To record autophosphorylation level, EGFR kinase assay was carried out on the basis of DELFIA/Time-Resolved Fluorometry. […] Each compound (10 µL) was incubated with recombinant enzyme (10 µL, 5 ng for EGFR, 1:80 dilution in 100 mM HEPES) for 10 min at 25 °C, subsequent to the addition of 5X buffer (10 µL, containing 2 mM MnCl2, 100 µM Na3VO4, 20 mM HEPES and 1 mM DTT) and ATP-MgCl2 (20 µL, containing 0.1 mM ATP and 50 mM MgCl2) and incubation for 1h. The negative and positive controls were included in each plate by the incubation of enzyme either with or without ATP-MgCl2. The liquid was removed after incubation and the plates were washed thrice using wash buffer. Europium-tagged antiphosphotyrosine antibody (75 µL, 400 ng) was added to each well followed by incubation of 1h and then washing of the plates using buffer. […] The autophosphorylation percentage inhibition by compounds was calculated using the following equation:

[8] = test system: MCF-10A normal human mammary gland epithelial cell line; conditions: 50 µM
Description: as §3

[9] = mean IC50 of A-549, MCF-7, Panc-1, HT-29

Row | IC50 ([2]; Homo sapiens) [nM] | IC50 ([3]; Homo sapiens, MCF7) [nM] | IC50 ([4]; Homo sapiens, PANC-1) [nM] | IC50 ([5]; Homo sapiens, A549) [nM] | Potency relative to 10e (GI50), fold less potent ([6]; GI50 vs 10e) [fold] | IC50 ([6]; Homo sapiens) [nM] | IC50 [7] [nM] | IC50 [2] [nM] | IC50 ([3]; MCF-7) [nM] | IC50 ([4]; Panc-1) [nM] | IC50 ([5]; A-549) [nM] | IC50 [6, 9] [nM] | Compound | viability at 4 days, 50 µM [1] [%] | Cell viability % [8] [%]
1 | 38 ± 3 | 34 ± 3 | 36 ± 3 | 37 ± 3 | 1.5 | 36 | 86 ± 6 | – | – | – | – | – | O=[N+]([O-])c1ccc(-n2cc(Cn3c(SCc4ccccc4)nc4ccccc43)nn2)cc1 [10d] | 89 | –
2 | 86 ± 8 | 83 ± 7 | 86 ± 8 | 85 ± 7 | – | 85 | – | – | – | – | – | – | O=[N+]([O-])c1ccc(-n2cc(CSc3nc4ccccc4[nH]3)nn2)cc1 [6d, 2-(((1-(4-Nitrophenyl)-1H-1,2,3-triazol-4-yl)methyl)thio)-1H-benzimidazole] | 93 | –
3 | – | – | – | – | – | – | – | 65 ± 6 | 63 ± 6 | 65 ± 6 | 66 ± 6 | 65 | 2-(Benzylthio)-1-((1-(p-tolyl)-1H-1,2,3-triazol-5-yl)methyl)-1H-benzimidazole [10f] | – | 89
4 | 35 ± 3 | 32 ± 3 | 34 ± 3 | 34 ± 3 | – | 34 | 82 ± 5 | – | – | – | – | – | COc1ccc(-n2cc(Cn3c(SCc4ccccc4)nc4ccccc43)nn2)cc1 [10g] | 90 | –
5 | 68 ± 6 | 66 ± 6 | 69 ± 6 | 69 ± 6 | – | 68 | – | – | – | – | – | – | COc1cccc(-n2cc(CSc3nc4ccccc4[nH]3)nn2)c1 [6h, 2-(((1-(3-Methoxyphenyl)-1H-1,2,3-triazol-4-yl)methyl)thio)-1H-benzimidazole] | 91 | –
6 | 82 ± 7 | 78 ± 7 | 80 ± 7 | 81 ± 7 | – | 80 | – | – | – | – | – | – | Cc1ccc(-n2cc(CSc3nc4ccccc4[nH]3)nn2)cc1 [6f, 2-(((1-(p-Tolyl)-1H-1,2,3-triazol-4-yl)methyl)thio)-1H-benzimidazole] | 90 | –
7 | 88 ± 8 | 85 ± 7 | 89 ± 8 | 89 ± 8 | – | 88 | – | – | – | – | – | – | c1ccc(-n2cc(CSc3nc4ccccc4[nH]3)nn2)cc1 [6a, 2-(((1-Phenyl-1H-1,2,3-triazol-4-yl)methyl)thio)-1H-benzimidazole] | 84 | –
8 | – | – | – | – | – | – | – | 60 ± 5 | 56 ± 5 | 60 ± 5 | 59 ± 5 | 59 | 2-(Benzylthio)-1-((1-phenyl-1H-1,2,3-triazol-5-yl)methyl)-1H-benzimidazole [10a] | – | 87
9 | 45 ± 4 | 42 ± 4 | 44 ± 4 | 44 ± 4 | – | 43 | – | – | – | – | – | – | NS(=O)(=O)c1ccc(-n2cc(Cn3c(SCc4ccccc4)nc4ccccc43)nn2)cc1 [10i] | 91 | –
10 | – | – | – | – | – | – | – | 48 ± 4 | 44 ± 3 | 48 ± 4 | 48 ± 4 | – | 2-(Benzylthio)-1-((1-(4-chlorophenyl)-1H-1,2,3-triazol-5-yl)methyl)-1H-benzimidazole [10b] | – | 86
11 | 94 ± 9 | 90 ± 8 | 96 ± 9 | 96 ± 9 | – | 94 | – | – | – | – | – | – | Brc1ccc(-n2cc(CSc3nc4ccccc4[nH]3)nn2)cc1 [6c, 2-(((1-(4-Bromophenyl)-1H-1,2,3-triazol-4-yl)methyl)thio)-1H-benzimidazole] | 91 | –
12 | 38 ± 3 | 36 ± 3 | 38 ± 3 | 40 ± 3 | – | 38 | 89 ± 6 | – | – | – | – | – | O=[N+]([O-])c1cccc(-n2cc(CSc3nc4ccccc4[nH]3)nn2)c1 [6e, 2-(((1-(3-Nitrophenyl)-1H-1,2,3-triazol-4-yl)methyl)thio)-1H-benzimidazole] | 86 | –
13 | 48 ± 4 | 45 ± 4 | 48 ± 4 | 47 ± 4 | – | 47 | – | – | – | – | – | – | Clc1ccc(-n2cc(CSc3nc4ccccc4[nH]3)nn2)cc1 [6b, 2-(((1-(4-Chlorophenyl)-1H-1,2,3-triazol-4-yl)methyl)thio)-1H-benzimidazole] | 87 | –
14 | – | – | – | – | – | – | – | 76 ± 7 | 72 ± 7 | 76 ± 7 | 76 ± 7 | 75 | 2-(Benzylthio)-1-((1-(3-methoxyphenyl)-1H-1,2,3-triazol-5-yl)methyl)-1H-benzimidazole [10h] | – | 89
15 | – | – | – | – | – | – | – | 54 ± 5 | 52 ± 5 | 54 ± 5 | 55 ± 5 | 54 | 2-(Benzylthio)-1-((1-(4-bromophenyl)-1H-1,2,3-triazol-5-yl)methyl)-1H-benzimidazole [10c] | – | 92
16 | 74 ± 7 | 69 ± 6 | 72 ± 7 | 72 ± 7 | – | 72 | – | – | – | – | – | – | COc1ccc(-n2cc(CSc3nc4ccccc4[nH]3)nn2)cc1 [6g, 2-(((1-(4-Methoxyphenyl)-1H-1,2,3-triazol-4-yl)methyl)thio)-1H-benzimidazole] | 89 | –

Row | Compound | IC50 ([2]; Homo sapiens) [nM] | IC50 ([3]; Homo sapiens, MCF7) [nM] | IC50 ([4]; Homo sapiens, PANC-1) [nM] | IC50 ([5]; Homo sapiens, A549) [nM] | Potency relative to 10e (GI50), fold less potent ([6]; GI50 vs 10e) [fold] | IC50 ([6]; Homo sapiens) [nM] | IC50 [7] [nM] | IC50 [2] [nM] | IC50 ([3]; MCF-7) [nM] | IC50 ([4]; Panc-1) [nM] | IC50 ([5]; A-549) [nM] | IC50 [6, 9] [nM] | viability at 4 days, 50 µM [1] [%] | Cell viability % [8] [%]
17 | C#Cc1cccc(Nc2ncnc3cc(OCCOC)c(OCCOC)cc23)c1 [Erlotinib, reference compound] | – | – | – | – | – | 33 | – | – | – | – | – | – | – | –
